From ChEMBL document CHEMBL3885861, “Open TG-GATES”

Species: Rattus norvegicus
Assay: Open TG-GATES - Regimen: Daily Repeat
Type: toxicity, organism-based, Sprague-Dawley
Design: regimen Daily Repeat, gender Male, age 6 weeks
Conditions: in vivo, po, 100 mg/kg, route gavage, dose level Low; for APTT / Bas / Eos / Fbg / Hb / Ht / Lym / MCH / MCHC / MCV / Mono / Neu / PT / Plat / RBC / Ret / WBC: tissue Blood; for KIDNEY_L / KIDNEY_R / KIDNEY_TOTAL: tissue Kidney; for LIVER: tissue Liver; for A/G / ALP / ALT / AST / BUN / CRE / Ca / Cl / DBIL / GLC / IP / K / LDH / Na / PL / RALB / TBIL / TC / TG / TP / gamma-GTP: tissue Plasma

CN/C(=N/CCSCc1nc[nH]c1C)NC#N [CIMETIDINE]
TERMINAL_BW (72 h, time 3 day): 228.3 g
APTT (72 h, time 3 day): 18 s
Bas (72 h, time 3 day): 0.2%
Eos (72 h, time 3 day): 1%
Fbg (72 h, time 3 day): 220 mg/dL
Hb (72 h, time 3 day): 12.8 g/dL
Ht (72 h, time 3 day): 38.6%
Lym (72 h, time 3 day): 77.6%
MCH (72 h, time 3 day): 21.1 pg
MCHC (72 h, time 3 day): 33.2%
MCV (72 h, time 3 day): 63.6 fL
Mono (72 h, time 3 day): 2.6%
Neu (72 h, time 3 day): 17.4%
PT (72 h, time 3 day): 12.6 s
Plat (72 h, time 3 day): 127.7 x10_4/uL
RBC (72 h, time 3 day): 607 x10_4/ul
Ret (72 h, time 3 day): 6.9%
WBC (72 h, time 3 day): 97.9 x10_2/uL
KIDNEY_L (72 h, time 3 day): 1 g
KIDNEY_R (72 h, time 3 day): 1 g
KIDNEY_TOTAL (72 h, time 3 day): 2 g
LIVER (72 h, time 3 day): 10.7 g
A/G (72 h, time 3 day): 1.5
ALP (72 h, time 3 day): 1125.6 IU/L
ALT (72 h, time 3 day): 37 IU/L
AST (72 h, time 3 day): 66.4 IU/L
BUN (72 h, time 3 day): 14.8 mg/dL
CRE (72 h, time 3 day): 0.4 mg/dL
Ca (72 h, time 3 day): 10.9 mg/dL
Cl (72 h, time 3 day): 103.2 meq/L
DBIL (72 h, time 3 day): 0.1 mg/dL
GLC (72 h, time 3 day): 195.6 mg/dL
IP (72 h, time 3 day): 7.1 mg/dL
K (72 h, time 3 day): 4.2 meq/L
LDH (72 h, time 3 day): 137.8 IU/L
Na (72 h, time 3 day): 140.8 meq/L
PL (72 h, time 3 day): 155.8 mg/dL
RALB (72 h, time 3 day): 3.4 g/dL
TBIL (72 h, time 3 day): 0.2 mg/dL
TC (72 h, time 3 day): 78.6 mg/dL
TG (72 h, time 3 day): 109.8 mg/dL
TP (72 h, time 3 day): 5.6 g/dL
gamma-GTP (72 h, time 3 day): 1.2 IU/L
TERMINAL_BW ([…], time 7 day): 260 g
TERMINAL_BW ([…], time 14 day): 308.9 g
TERMINAL_BW ([…], time 28 day): 402.8 g
APTT ([…], time 7 day): 18.3 s
Bas ([…], time 7 day): 0.2%
Eos ([…], time 7 day): 0.8%
Fbg ([…], time 7 day): 227.6 mg/dL
Hb ([…], time 7 day): 13.5 g/dL
Ht ([…], time 7 day): 40.3%
Lym ([…], time 7 day): 81.6%
MCH ([…], time 7 day): 20.8 pg
MCHC ([…], time 7 day): 33.4%
MCV ([…], time 7 day): 62.2 fL
Mono ([…], time 7 day): 2%
Neu ([…], time 7 day): 14.6%
PT ([…], time 7 day): 12.2 s
Plat ([…], time 7 day): 126 x10_4/uL
RBC ([…], time 7 day): 648.2 x10_4/ul
Ret ([…], time 7 day): 5.4%
WBC ([…], time 7 day): 111.1 x10_2/uL
APTT ([…], time 14 day): 19.3 s
Bas ([…], time 14 day): 0%
Eos ([…], time 14 day): 1%
Fbg ([…], time 14 day): 219.2 mg/dL
Hb ([…], time 14 day): 14.4 g/dL
Ht ([…], time 14 day): 43.9%
Lym ([…], time 14 day): 83.8%
MCH ([…], time 14 day): 19.5 pg
MCHC ([…], time 14 day): 32.8%
MCV ([…], time 14 day): 59.5 fL
Mono ([…], time 14 day): 2.2%
Neu ([…], time 14 day): 13%
PT ([…], time 14 day): 12.7 s
Plat ([…], time 14 day): 120.2 x10_4/uL
RBC ([…], time 14 day): 737.8 x10_4/ul
Ret ([…], time 14 day): 3.9%
WBC ([…], time 14 day): 93.7 x10_2/uL
APTT ([…], time 28 day): 19.7 s
Bas ([…], time 28 day): 0.2%
Eos ([…], time 28 day): 1.2%
Fbg ([…], time 28 day): 217.4 mg/dL
Hb ([…], time 28 day): 14.6 g/dL
Ht ([…], time 28 day): 42.3%
Lym ([…], time 28 day): 79.4%
MCH ([…], time 28 day): 19.2 pg
MCHC ([…], time 28 day): 34.5%
MCV ([…], time 28 day): 55.8 fL
Mono ([…], time 28 day): 2.8%
Neu ([…], time 28 day): 15.6%
PT ([…], time 28 day): 12.9 s
Plat ([…], time 28 day): 114 x10_4/uL
RBC ([…], time 28 day): 758.2 x10_4/ul
Ret ([…], time 28 day): 2.8%
WBC ([…], time 28 day): 137.9 x10_2/uL
KIDNEY_L ([…], time 7 day): 1.1 g
KIDNEY_R ([…], time 7 day): 1.1 g
KIDNEY_TOTAL ([…], time 7 day): 2.2 g
KIDNEY_L ([…], time 14 day): 1.2 g
KIDNEY_R ([…], time 14 day): 1.3 g
KIDNEY_TOTAL ([…], time 14 day): 2.5 g
KIDNEY_L ([…], time 28 day): 1.4 g
KIDNEY_R ([…], time 28 day): 1.4 g
KIDNEY_TOTAL ([…], time 28 day): 2.8 g
LIVER ([…], time 7 day): 13 g
LIVER ([…], time 14 day): 13.9 g
LIVER ([…], time 28 day): 17.6 g
A/G ([…], time 7 day): 1.5
ALP ([…], time 7 day): 831 IU/L
ALT ([…], time 7 day): 34.8 IU/L
AST ([…], time 7 day): 64.2 IU/L
BUN ([…], time 7 day): 16.6 mg/dL
CRE ([…], time 7 day): 0.4 mg/dL
Ca ([…], time 7 day): 10.7 mg/dL
Cl ([…], time 7 day): 102 meq/L
DBIL ([…], time 7 day): 0.096 mg/dL
GLC ([…], time 7 day): 252.8 mg/dL
IP ([…], time 7 day): 7.8 mg/dL
K ([…], time 7 day): 4 meq/L
LDH ([…], time 7 day): 155 IU/L
Na ([…], time 7 day): 139.6 meq/L
PL ([…], time 7 day): 161 mg/dL
RALB ([…], time 7 day): 3.3 g/dL
TBIL ([…], time 7 day): 0.1 mg/dL
TC ([…], time 7 day): 78.8 mg/dL
TG ([…], time 7 day): 121 mg/dL
TP ([…], time 7 day): 5.6 g/dL
gamma-GTP ([…], time 7 day): 1.2 IU/L
A/G ([…], time 14 day): 1.4
ALP ([…], time 14 day): 969.6 IU/L
ALT ([…], time 14 day): 42 IU/L
AST ([…], time 14 day): 74.8 IU/L
BUN ([…], time 14 day): 17.6 mg/dL
CRE ([…], time 14 day): 0.4 mg/dL
Ca ([…], time 14 day): 10.5 mg/dL
Cl ([…], time 14 day): 102 meq/L
DBIL ([…], time 14 day): 0.1 mg/dL
GLC ([…], time 14 day): 205.2 mg/dL
IP ([…], time 14 day): 7.1 mg/dL
K ([…], time 14 day): 4 meq/L
LDH ([…], time 14 day): 210.8 IU/L
Na ([…], time 14 day): 141.4 meq/L
PL ([…], time 14 day): 142.2 mg/dL
RALB ([…], time 14 day): 3.4 g/dL
TBIL ([…], time 14 day): 0.2 mg/dL
TC ([…], time 14 day): 62.8 mg/dL
TG ([…], time 14 day): 137.8 mg/dL
TP ([…], time 14 day): 5.9 g/dL
gamma-GTP ([…], time 14 day): 0.8 IU/L
A/G ([…], time 28 day): 1.4
ALP ([…], time 28 day): 672 IU/L
ALT ([…], time 28 day): 35.4 IU/L
AST ([…], time 28 day): 66.4 IU/L
BUN ([…], time 28 day): 18.6 mg/dL
CRE ([…], time 28 day): 0.6 mg/dL
Ca ([…], time 28 day): 10.3 mg/dL
Cl ([…], time 28 day): 101.6 meq/L
DBIL ([…], time 28 day): 0.1 mg/dL
GLC ([…], time 28 day): 264.2 mg/dL
IP ([…], time 28 day): 6.9 mg/dL
K ([…], time 28 day): 3.5 meq/L
LDH ([…], time 28 day): 186 IU/L
Na ([…], time 28 day): 140.4 meq/L
PL ([…], time 28 day): 150.8 mg/dL
RALB ([…], time 28 day): 3.5 g/dL
TBIL ([…], time 28 day): 0.2 mg/dL
TC ([…], time 28 day): 70.2 mg/dL
TG ([…], time 28 day): 167.4 mg/dL
TP ([…], time 28 day): 6 g/dL
gamma-GTP ([…], time 28 day): 1.2 IU/L
